Measured values taken from patent US20260240851A1, “Treatment of Parkinson's Disease in a Patient Using a Glucocerebrosidase Activator” (BIAL - R&D Investments, S.A., priority 2023, published 2026).
Where two headings read alike, the source gives them in different places.

Key:
Format in all cases: in vivo, human
[1] = LTI-291-002 multiple ascending dose study: plasma and CSF pharmacokinetics; details: for AUC(0-t) / half-life / AUC(0-inf) / Cmax: human, plasma, oral
Description: (§1) This study was a phase 1, randomized, double-blind, placebo-controlled, multiple ascending dose study of Compound A in 4 cohorts of middle-aged to elderly healthy participants (aged 52 to 75 years). […] A total of 39 healthy subjects were enrolled in 4 sequential cohorts. Subjects in each cohort received once-daily oral doses of 3 mg (n=7), 10 mg (n=8), 30 mg (n=8), or 60 mg (n=8) Compound A or placebo (n=8) for 14 days. Pharmacokinetic parameters were determined for each dose at Day 1, Day 7, and Day 14. Cerebrospinal fluid samples for Compound A concentrations were measured before the first dose and 4 hours after the last dose for each dose level. GluCer, glucosyl sphingosine (GluSph), and lactosyl-ceramide (LacCer) were measured in plasma, PBMCs, and CSF as biomarkers of pharmacological effects. Pharmacodynamic measurements consisted of battery of CNS (NeuroCart®) assessments including Saccadic Eye Movements, Smooth Pursuit Eye Movements, Adaptive Tracking, Body Sway, Visual Verbal Learning Test, and pharmaco-EEG.

[2] = BIA 28-6156-107 DDI: effect of multiple-dose carbamazepine on single-dose PK of Compound A; details: for Tmax / half-life: both sexes, human, in vivo, oral; for Tmax: read-out: Median Tmax; for half-life: read-out: geometric mean t1/2 (converted)
[3] = LTI-291-002: safety and tolerability
Description: as §1

[4] = LTI-291-002: CNS (NeuroCart) assessments
Description: as §1

[5] = 10 mg, 10 mg daily, dose 14, geometric mean
[6] = 30 mg, 30 mg daily, dose 1, geometric mean
[7] = 30 mg, 30 mg daily, dose 7, geometric mean
[8] = 30 mg, 30 mg daily, dose 14, geometric mean
[9] = 60 mg, 60 mg daily, dose 1, geometric mean
[10] = 60 mg, 60 mg daily, dose 7, geometric mean
[11] = 60 mg, 60 mg daily, dose 14, geometric mean
[12] = Compound A + carbamazepine vs Compound A alone
[13] = 60 mg Compound A administered alone

CCCCCO[C@H]1CC[C@H](NC(=O)c2cnn3c(C)cc(C)nc23)CC1 [Compound A, 5,7-dimethyl-N-((1S*,4S)-4-(pentyloxy)cyclohexyl)pyrazolo[1,5-a]pyrimidine-3-carboxamide]
AUC(0-t) ([1]; 10 mg, 10 mg daily, dose 7, geometric mean, read-out: AUC0-last): 7820 ng·h/mL | half-life ([1]; 10 mg, 10 mg daily, dose 7, geometric mean, read-out: t½ (converted)): 1720 min | AUC(0-inf) [1, 5]: 18600 ng·h/mL | Cmax [1, 5]: 493 ng/mL | AUC(0-t) ([1]; 10 mg, 10 mg daily, dose 14, geometric mean, read-out: AUC0-24): 7510 ng·h/mL | AUC(0-t) ([1]; 10 mg, 10 mg daily, dose 14, geometric mean, read-out: AUC0-last): 11900 ng·h/mL | half-life ([1]; 10 mg, 10 mg daily, dose 14, geometric mean, read-out: t½ (converted)): 1930 min | AUC(0-inf) [1, 6]: 22600 ng·h/mL | Cmax [1, 6]: 869 ng/mL | AUC(0-t) ([1]; 30 mg, 30 mg daily, dose 1, geometric mean, read-out: AUC0-24): 10600 ng·h/mL | AUC(0-t) ([1]; 30 mg, 30 mg daily, dose 1, geometric mean, read-out: AUC0-last): 10400 ng·h/mL | half-life ([1]; 30 mg, 30 mg daily, dose 1, geometric mean, read-out: t½ (converted)): 1560 min | AUC(0-inf) [1, 7]: 56800 ng·h/mL | Cmax [1, 7]: 1600 ng/mL | AUC(0-t) ([1]; 30 mg, 30 mg daily, dose 7, geometric mean, read-out: AUC0-24): 26500 ng·h/mL | AUC(0-t) ([1]; 30 mg, 30 mg daily, dose 7, geometric mean, read-out: AUC0-last): 26300 ng·h/mL | half-life ([1]; 30 mg, 30 mg daily, dose 7, geometric mean, read-out: t½ (converted)): 1540 min | AUC(0-inf) [1, 8]: 139000 ng·h/mL | Cmax [1, 8]: 1500 ng/mL | AUC(0-t) ([1]; 30 mg, 30 mg daily, dose 14, geometric mean, read-out: AUC0-24): 26200 ng·h/mL | AUC(0-t) ([1]; 30 mg, 30 mg daily, dose 14, geometric mean, read-out: AUC0-last): 45000 ng·h/mL | half-life ([1]; 30 mg, 30 mg daily, dose 14, geometric mean, read-out: t½ (converted)): 4500 min | AUC(0-inf) [1, 9]: 39300 ng·h/mL | Cmax [1, 9]: 1950 ng/mL | AUC(0-t) ([1]; 60 mg, 60 mg daily, dose 1, geometric mean, read-out: AUC0-24): 19600 ng·h/mL | AUC(0-t) ([1]; 60 mg, 60 mg daily, dose 1, geometric mean, read-out: AUC0-last): 19200 ng·h/mL | half-life ([1]; 60 mg, 60 mg daily, dose 1, geometric mean, read-out: t½ (converted)): 1510 min | AUC(0-inf) [1, 10]: 139000 ng·h/mL | Cmax [1, 10]: 3190 ng/mL | AUC(0-t) ([1]; 60 mg, 60 mg daily, dose 7, geometric mean, read-out: AUC0-24): 52100 ng·h/mL | AUC(0-t) ([1]; 60 mg, 60 mg daily, dose 7, geometric mean, read-out: AUC0-last): 50300 ng·h/mL | half-life ([1]; 60 mg, 60 mg daily, dose 7, geometric mean, read-out: t½ (converted)): 2150 min | AUC(0-inf) [1, 11]: 130000 ng·h/mL | Cmax [1, 11]: 3070 ng/mL | AUC(0-t) ([1]; 60 mg, 60 mg daily, dose 14, geometric mean, read-out: AUC0-24): 50900 ng·h/mL | AUC(0-t) ([1]; 60 mg, 60 mg daily, dose 14, geometric mean, read-out: AUC0-last): 82000 ng·h/mL | half-life ([1]; 60 mg, 60 mg daily, dose 14, geometric mean, read-out: t½ (converted)): 1970 min | half-life ([1]; after the 1st dose, across dose levels, read-out: mean t1/2): 1240 to 1670 min | half-life ([1]; after the 7th dose, across dose levels, read-out: mean t1/2): 1540 to 2150 min | half-life ([1]; after the 14th dose, across dose levels, read-out: mean t1/2): 1930 to 4500 min | steady-state conditions ([1]; once-daily dosing): achieved by the 7th daily dose | AUC0-inf ratio of geometric least squares means (point estimate) [2, 12]: 0.363 | AUC0-last ratio of geometric least squares means (point estimate) [2, 12]: 0.367 | Cmax ratio of geometric least squares means (point estimate) [2, 12]: 0.877 | Tmax [2, 13]: 1 h | half-life [2, 13]: 1680 min | Tmax ([2]; 60 mg Compound A coadministered with carbamazepine): 2 h | half-life ([2]; Compound A coadministered with carbamazepine): 720 min | reduction of AUC0-inf ([2]; with carbamazepine vs alone): 64% | reduction of AUC0-last ([2]; with carbamazepine vs alone): 63% | reduction of Cmax ([2]; with carbamazepine vs alone): approximately 12% | Myalgia, subjects ([3]; 3 mg dose group): 14% | Somnolence, subjects ([3]; 3 mg dose group): 14% | Myalgia, subjects ([3]; 10 mg dose group): 0% | Somnolence, subjects ([3]; 10 mg dose group): 0% | Myalgia, subjects ([3]; 30 mg dose group): 13% | Somnolence, subjects ([3]; 30 mg dose group): 0% | Myalgia, subjects ([3]; 60 mg dose group): 38% | Somnolence, subjects ([3]; 60 mg dose group): 50% | creatine kinase abnormalities ([3]; 60 mg group): No clinically significant creatine kinase abnormalities | deaths, SAEs, severe AEs, discontinuations due to AEs ([3]; 3-60 mg daily for 14 days): No deaths, other SAEs, severe AEs, or discontinuations due to AEs | vital signs, laboratory safety assessments, ECG parameters ([3]; 14 days): no clinically significant safety observations | AE back pain, subjects ([3]; all Compound A groups): 13% | AE headache, subjects ([3]; all Compound A groups): 39% | AE myalgia, subjects ([3]; all Compound A groups): 16% | AE somnolence, subjects ([3]; all Compound A groups): 16% | EEG Alpha-power Pz-Oz, eyes closed ([4]; 3 mg vs placebo): significant decrease | effects on CNS (Neurocart) tests ([4]; 3-60 mg daily for 14 days): no dose-dependent effects | saccadic inaccuracy ([4]; 10 and 30 mg groups vs placebo): significant increase | saccadic peak velocity or reaction time ([4]; vs placebo): No changes
